Test results as given in ChEMBL document CHEMBL1201862, “PubChem BioAssay data set” (2004).
Calls of active or inactive are those of the source.

Assays:
[1] = biological target: Peroxisome proliferator-activated receptor gamma/Nuclear receptor coactivator 2 (Homo sapiens, UniProt P37231); type: functional;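 note: agonist potency for raising coactivator recruitment to the receptor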
[2] = biological target: Peroxisome proliferator-activated receptor gamma/Nuclear receptor coactivator 1 (Homo sapiens, UniProt P37231); type: functional;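 note: agonist potency as compounds enhance coactivator SRC-1 recruitment to PPARgamma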
[3] = biological target: Peroxisome proliferator-activated receptor gamma/Nuclear receptor coactivator 3 (Homo sapiens, UniProt P37231); type: functional;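 note: agonist potency for raising coactivator recruitment to the receptor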
[4] = biological target: Glyceraldehyde-3-phosphate dehydrogenase (Homo sapiens, UniProt P04406)
[5] = biological target: T1, Alkaline phosphatase, tissue-nonspecific isozyme (Homo sapiens, UniProt P05186); test: potency against alkaline phosphatase TNAP – biochemical, luminescent, dose response, SAR follow-up (AID 1056)
T1 sequence (P05186 whole entry): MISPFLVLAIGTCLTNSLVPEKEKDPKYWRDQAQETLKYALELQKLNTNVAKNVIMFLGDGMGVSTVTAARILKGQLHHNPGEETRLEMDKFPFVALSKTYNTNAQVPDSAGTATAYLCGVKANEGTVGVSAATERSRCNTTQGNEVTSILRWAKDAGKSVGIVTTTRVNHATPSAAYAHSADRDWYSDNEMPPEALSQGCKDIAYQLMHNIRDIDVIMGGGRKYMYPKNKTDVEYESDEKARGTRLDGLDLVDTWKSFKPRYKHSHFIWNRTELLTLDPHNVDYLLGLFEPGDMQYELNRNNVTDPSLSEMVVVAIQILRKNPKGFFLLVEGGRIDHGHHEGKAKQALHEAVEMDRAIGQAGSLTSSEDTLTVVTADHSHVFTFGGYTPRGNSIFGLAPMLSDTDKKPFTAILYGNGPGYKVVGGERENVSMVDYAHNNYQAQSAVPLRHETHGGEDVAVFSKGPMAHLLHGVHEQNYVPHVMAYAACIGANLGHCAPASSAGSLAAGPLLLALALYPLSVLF

[6] = Luminescence Cell-Based Dose Retest to Confirm Inhibitors of Cancer Stem Cells. [Related pubchem assays (depositor defined):AID2717, AID2721]; type: functional; conditions: Homo sapiens
[7] = biological target: Neurotensin receptor type 1 (Homo sapiens, UniProt P30989); type: functional;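 note: Image-based confirmatory dose-response assay measuring agonist activity at NTR1; NTR1-expressing U2OS osteosarcoma cells imaged for beta-arrestin GFP spot formation; agonist potency where compounds increase beta-arrestin recruitment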
[8] = system: INS1; test: INS-1E survival protection against cytokine death – cell-based, luminescence, retest, dose response (AID 449756); type: functional; conditions: Rattus norvegicus;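 note: cell death triggered by IL-1 beta plus TNF-alpha plus IFN-gamma mixture; protective hits raise ATP signal compared with cytokine alone wells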
[9] = reduction of Shn3 3'UTR-driven luciferase in osteoblasts – cell-based, Clone20 osteoblasts, firefly luciferase, cherry-picked, dose response (AID 624132); type: functional;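 note: firefly luciferase luminescence from reporter carrying the Shn3 3'UTR in osteoblasts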
[10] = loss of viability in HepG2 cells – cell-based, CellTiter-Glo, cherry-picked, cytotoxicity control for Shn3 inhibitor project, dose response (AID 624134); type: functional
[11] = non-specific 3'UTR reporter inhibition in Clone20-Shn3RL – cell-based, Renilla luciferase, cherry-picked, counter-screen for Shn3 inhibitor project, dose response (AID 624133); type: functional
[12] = biological target: Eukaryotic translation initiation factor 4E (Mus musculus, UniProt P63073); test: blockers of eIF4G binding by eIF4E – biochemical, TR-FRET, dose response (AID 855); type: functional;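 note: potency for disrupting eIF4E binding to eIF4GI seen as loss of FRET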
[13] = biological target: T2, Coagulation factor XII (Homo sapiens, UniProt P00748); type: functional;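 note: activated factor XIIa alpha cleaving a fluorogenic AMC peptide substrate; inhibitor potency from loss of enzyme activity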
T2 sequence (P00748 whole entry): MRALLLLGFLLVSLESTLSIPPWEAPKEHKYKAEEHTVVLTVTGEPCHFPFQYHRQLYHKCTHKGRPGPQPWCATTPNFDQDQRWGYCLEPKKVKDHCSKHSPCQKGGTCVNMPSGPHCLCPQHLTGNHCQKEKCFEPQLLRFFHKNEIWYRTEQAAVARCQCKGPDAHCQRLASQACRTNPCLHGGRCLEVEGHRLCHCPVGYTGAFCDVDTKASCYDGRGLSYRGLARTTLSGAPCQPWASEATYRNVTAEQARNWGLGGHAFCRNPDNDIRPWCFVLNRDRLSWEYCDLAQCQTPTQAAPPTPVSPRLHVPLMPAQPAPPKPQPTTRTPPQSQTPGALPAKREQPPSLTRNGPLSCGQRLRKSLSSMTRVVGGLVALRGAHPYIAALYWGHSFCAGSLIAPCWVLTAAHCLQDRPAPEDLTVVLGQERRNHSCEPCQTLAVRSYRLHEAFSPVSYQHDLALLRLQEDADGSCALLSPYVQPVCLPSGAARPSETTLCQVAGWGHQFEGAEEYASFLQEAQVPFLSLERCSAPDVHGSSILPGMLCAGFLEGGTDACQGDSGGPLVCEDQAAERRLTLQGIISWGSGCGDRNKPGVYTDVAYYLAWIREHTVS

[14] = biological target: T3, Corticotropin-releasing factor receptor 2/Corticotropin-releasing factor-binding protein (Homo sapiens, UniProt P24387+Q13324); test: Dose Response confirmation of uHTS hits for small molecule antagonists of the CRF-binding protein and CRF-R2 receptor complex.; type: functional; conditions: read-out: IC50_Mean
T3 sequence (Q13324 whole entry): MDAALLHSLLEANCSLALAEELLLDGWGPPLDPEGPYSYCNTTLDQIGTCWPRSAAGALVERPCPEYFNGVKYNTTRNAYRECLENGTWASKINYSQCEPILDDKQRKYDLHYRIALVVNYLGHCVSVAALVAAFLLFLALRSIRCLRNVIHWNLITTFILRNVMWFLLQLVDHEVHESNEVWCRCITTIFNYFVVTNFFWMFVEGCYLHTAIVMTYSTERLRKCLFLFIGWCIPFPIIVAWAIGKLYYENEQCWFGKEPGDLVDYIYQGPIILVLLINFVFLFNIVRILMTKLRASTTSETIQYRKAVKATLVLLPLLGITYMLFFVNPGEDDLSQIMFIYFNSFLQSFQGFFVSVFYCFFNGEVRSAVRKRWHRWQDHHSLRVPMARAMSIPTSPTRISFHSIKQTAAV
T3 sequence (P24387 whole entry): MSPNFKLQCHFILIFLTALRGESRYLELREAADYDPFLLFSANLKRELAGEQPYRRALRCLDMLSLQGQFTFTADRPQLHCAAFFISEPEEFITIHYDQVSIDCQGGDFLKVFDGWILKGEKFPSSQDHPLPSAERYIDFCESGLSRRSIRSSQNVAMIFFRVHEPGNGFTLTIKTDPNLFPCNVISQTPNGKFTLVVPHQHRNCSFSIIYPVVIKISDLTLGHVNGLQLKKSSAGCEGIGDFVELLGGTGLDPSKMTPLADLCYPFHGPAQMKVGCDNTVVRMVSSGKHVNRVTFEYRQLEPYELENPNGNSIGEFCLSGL

[15] = biological target: T3, Corticotropin-releasing factor receptor 2/Corticotropin-releasing factor-binding protein; test: activators of CRF receptor 2 with binding protein – uHTS hits, confirmation (AID 602473); type: functional; conditions: read-out: EC50_Mean
[16] = blockers of CRF-binding protein–CRF-R2 complex – cell-based, uHTS hits, 384-well, dose response (AID 651639); type: functional, Homo sapiens; conditions: read-out: IC50_Mean
[17] = biological target: Melanocortin receptor 4 (Homo sapiens, UniProt P32245); test: inhibitors of MC4R cAMP signaling – cell-based, TR-FRET, biased antagonists, dose response (AID 602298); type: functional;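 note: antagonist potency against agonist-stimulated cAMP production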
[18] = cAMP pathway inhibition in counterscreen cell line – TR-FRET cAMP detection, counter-screen for MC4R biased antagonist project, dose response (AID 602305); type: functional, cell-based;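 note: U2OS cells stimulated with forskolin near its EC80 as the cAMP inducer; potency is for inhibition of forskolin-stimulated cAMP signaling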
[19] = A Cell Based Secondary Assay to Explore Cytotoxicity in THP-1 Cells of Compounds that Modulate Mycobacterium tuberculosis in Media Containing Glycerol versus Media without Glycerol (2).; type: functional
[20] = Vero cell cytotoxicity, cytotoxicity control for M. tuberculosis inhibitor project, purified and synthesized samples, set 3 (AID 504684); type: functional
[21] = biological target: Heat shock protein HSP 90-alpha (Homo sapiens, UniProt P07900); type: functional, organism-based
[22] = biological target: Photoreceptor-specific nuclear receptor (Homo sapiens, UniProt Q9Y5X4); type: functional, cell-based;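 note: CHO-S cells with Gal4-NCOR and VP16-NR2E3 two-hybrid luciferase reporter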

Chain of Neurotensin receptor type 1 (P30989 whole entry): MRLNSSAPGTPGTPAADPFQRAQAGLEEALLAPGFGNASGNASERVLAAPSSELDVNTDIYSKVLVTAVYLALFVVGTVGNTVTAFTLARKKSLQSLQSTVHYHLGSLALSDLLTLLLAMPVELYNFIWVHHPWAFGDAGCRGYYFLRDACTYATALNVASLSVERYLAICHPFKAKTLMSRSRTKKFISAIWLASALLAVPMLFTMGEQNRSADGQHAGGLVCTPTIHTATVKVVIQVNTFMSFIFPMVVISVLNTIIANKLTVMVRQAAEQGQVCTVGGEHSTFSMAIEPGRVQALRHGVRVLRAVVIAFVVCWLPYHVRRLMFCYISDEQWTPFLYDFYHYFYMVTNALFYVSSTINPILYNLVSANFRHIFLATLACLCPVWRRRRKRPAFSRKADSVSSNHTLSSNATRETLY
Chain of Peroxisome proliferator-activated receptor gamma/Nuclear receptor coactivator 1 (P37231 whole entry): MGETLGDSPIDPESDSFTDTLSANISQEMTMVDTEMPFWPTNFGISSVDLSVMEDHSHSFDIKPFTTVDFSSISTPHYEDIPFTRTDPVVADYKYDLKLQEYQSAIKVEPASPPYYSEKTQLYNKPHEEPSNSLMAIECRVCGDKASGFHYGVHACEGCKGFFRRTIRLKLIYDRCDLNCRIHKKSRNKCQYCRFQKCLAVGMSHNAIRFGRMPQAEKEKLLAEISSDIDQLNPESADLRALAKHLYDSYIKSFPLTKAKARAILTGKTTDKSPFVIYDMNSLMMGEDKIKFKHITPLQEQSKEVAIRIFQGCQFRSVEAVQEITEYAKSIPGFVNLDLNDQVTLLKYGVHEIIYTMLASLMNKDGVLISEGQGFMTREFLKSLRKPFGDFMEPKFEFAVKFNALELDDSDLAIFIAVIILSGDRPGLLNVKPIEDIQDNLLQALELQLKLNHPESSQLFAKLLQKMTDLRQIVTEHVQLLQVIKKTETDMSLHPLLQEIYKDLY
Chain of Peroxisome proliferator-activated receptor gamma/Nuclear receptor coactivator 1 (Q15788 whole entry, further chain): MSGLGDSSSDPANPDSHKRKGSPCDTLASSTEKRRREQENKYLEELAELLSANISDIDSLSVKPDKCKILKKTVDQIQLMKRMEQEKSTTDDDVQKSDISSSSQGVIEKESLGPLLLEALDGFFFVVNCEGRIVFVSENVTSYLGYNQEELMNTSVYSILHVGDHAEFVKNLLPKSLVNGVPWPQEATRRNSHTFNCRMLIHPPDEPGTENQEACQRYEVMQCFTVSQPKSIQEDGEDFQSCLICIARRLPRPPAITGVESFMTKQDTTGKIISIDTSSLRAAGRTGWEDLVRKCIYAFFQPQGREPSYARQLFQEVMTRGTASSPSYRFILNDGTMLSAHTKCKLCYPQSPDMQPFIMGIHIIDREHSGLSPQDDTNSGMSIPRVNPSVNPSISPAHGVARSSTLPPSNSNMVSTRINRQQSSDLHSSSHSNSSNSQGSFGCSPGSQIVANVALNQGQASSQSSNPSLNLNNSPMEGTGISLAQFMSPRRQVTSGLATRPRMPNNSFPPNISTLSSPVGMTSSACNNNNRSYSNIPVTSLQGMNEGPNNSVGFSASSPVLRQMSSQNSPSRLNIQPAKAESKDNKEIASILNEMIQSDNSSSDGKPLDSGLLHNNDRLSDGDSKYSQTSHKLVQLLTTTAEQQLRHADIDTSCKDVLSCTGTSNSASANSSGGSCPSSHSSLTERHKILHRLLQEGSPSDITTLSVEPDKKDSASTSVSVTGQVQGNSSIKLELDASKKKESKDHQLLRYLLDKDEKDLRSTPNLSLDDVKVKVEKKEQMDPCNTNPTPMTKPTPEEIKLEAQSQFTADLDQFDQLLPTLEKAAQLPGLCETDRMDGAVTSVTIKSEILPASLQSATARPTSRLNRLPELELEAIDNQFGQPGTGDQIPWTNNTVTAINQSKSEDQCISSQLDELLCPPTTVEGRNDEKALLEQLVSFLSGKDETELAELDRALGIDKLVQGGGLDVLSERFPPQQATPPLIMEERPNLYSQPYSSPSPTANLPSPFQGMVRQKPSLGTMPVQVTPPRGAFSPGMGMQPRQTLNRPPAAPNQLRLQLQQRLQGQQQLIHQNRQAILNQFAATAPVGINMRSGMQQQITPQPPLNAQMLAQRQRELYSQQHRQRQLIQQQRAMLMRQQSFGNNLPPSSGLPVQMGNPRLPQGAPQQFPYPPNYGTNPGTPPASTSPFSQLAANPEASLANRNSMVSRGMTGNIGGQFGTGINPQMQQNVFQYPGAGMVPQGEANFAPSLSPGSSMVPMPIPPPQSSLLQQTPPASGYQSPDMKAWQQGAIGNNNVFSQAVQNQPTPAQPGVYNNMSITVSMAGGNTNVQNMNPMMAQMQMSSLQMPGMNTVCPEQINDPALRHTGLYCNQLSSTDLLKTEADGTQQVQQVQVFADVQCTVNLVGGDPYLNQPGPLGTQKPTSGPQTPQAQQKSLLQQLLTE
Chain of Peroxisome proliferator-activated receptor gamma/Nuclear receptor coactivator 2 (P37231 whole entry): as the sequence (P37231 whole entry) above
Chain of Peroxisome proliferator-activated receptor gamma/Nuclear receptor coactivator 2 (Q15596 whole entry, further chain): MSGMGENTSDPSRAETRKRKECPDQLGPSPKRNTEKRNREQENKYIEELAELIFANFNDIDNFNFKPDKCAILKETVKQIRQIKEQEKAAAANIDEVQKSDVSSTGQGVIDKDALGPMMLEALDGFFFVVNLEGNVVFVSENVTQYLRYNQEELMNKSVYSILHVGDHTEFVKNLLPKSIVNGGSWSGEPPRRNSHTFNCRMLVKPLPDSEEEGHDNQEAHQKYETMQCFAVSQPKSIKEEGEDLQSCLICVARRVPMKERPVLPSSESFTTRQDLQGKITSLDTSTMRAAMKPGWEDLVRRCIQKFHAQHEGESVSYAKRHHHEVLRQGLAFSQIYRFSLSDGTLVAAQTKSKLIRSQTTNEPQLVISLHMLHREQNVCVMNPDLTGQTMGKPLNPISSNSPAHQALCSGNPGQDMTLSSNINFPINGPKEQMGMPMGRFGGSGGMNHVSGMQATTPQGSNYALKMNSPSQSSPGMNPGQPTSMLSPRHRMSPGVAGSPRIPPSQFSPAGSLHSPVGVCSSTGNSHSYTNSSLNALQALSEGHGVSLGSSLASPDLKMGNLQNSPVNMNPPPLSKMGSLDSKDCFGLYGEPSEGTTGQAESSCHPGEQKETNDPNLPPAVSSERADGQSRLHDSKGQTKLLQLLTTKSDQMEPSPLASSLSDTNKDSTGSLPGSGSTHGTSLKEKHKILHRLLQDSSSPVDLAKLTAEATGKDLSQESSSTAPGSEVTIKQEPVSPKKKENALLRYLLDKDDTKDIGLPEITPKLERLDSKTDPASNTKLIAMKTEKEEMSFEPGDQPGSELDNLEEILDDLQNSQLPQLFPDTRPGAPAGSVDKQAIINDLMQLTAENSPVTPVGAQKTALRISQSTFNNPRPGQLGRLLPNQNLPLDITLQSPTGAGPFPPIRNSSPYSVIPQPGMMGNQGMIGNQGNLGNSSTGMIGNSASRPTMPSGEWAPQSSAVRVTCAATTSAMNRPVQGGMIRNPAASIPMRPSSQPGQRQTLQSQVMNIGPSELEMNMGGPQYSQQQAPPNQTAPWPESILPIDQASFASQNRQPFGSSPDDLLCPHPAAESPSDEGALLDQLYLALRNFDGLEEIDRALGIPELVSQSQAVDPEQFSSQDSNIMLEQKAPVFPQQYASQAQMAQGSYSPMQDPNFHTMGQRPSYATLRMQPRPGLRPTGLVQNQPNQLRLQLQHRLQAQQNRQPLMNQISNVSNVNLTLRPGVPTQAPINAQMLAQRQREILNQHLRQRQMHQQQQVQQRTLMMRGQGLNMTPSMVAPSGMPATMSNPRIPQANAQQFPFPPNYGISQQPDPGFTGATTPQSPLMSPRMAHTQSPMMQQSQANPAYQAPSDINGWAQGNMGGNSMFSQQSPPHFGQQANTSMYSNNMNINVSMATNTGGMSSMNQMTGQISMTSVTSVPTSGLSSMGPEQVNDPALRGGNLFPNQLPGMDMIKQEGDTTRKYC
Chain of Glyceraldehyde-3-phosphate dehydrogenase (P04406 whole entry): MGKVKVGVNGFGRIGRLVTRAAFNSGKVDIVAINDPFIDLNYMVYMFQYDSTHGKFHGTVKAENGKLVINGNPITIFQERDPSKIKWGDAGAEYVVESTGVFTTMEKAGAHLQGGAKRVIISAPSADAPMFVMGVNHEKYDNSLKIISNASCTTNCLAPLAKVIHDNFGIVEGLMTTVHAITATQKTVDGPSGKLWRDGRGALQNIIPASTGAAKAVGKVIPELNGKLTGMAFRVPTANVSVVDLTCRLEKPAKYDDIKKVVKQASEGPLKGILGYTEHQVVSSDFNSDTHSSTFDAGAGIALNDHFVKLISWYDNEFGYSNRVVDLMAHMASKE
Chain of Eukaryotic translation initiation factor 4E (P63073 whole entry): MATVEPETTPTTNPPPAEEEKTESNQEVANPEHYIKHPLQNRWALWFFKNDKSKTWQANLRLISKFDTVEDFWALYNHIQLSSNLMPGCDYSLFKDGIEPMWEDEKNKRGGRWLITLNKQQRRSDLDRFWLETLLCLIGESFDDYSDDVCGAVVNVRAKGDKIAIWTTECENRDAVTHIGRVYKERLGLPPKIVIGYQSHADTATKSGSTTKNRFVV

Question: With `Cc1ccc(NC(=O)CSc2nnc(-c3ccc(S(=O)(=O)N4CCCC4)cc3)o2)cc1C` as the compound, how does the EC50 [1] read?
Answer: 39.8 µM (not active)

Question: What about the EC50 [2] of the same compound?
Answer: 81.2 µM (not active)

Question: What about the EC50 [3] of the same compound?
Answer: > 79.4 µM (not active)

Question: With `O=C1c2c(Cl)c(Cl)c(Cl)c(Cl)c2C(=O)N1c1nnc(CCc2ccccc2)[nH]1` as the compound, how does the IC50 [4] read?
Answer: > 100 µM (not active)

Question: What about the IC50 [5] of the same compound?
Answer: > 100 µM (inactive)

Question: Which AC50 [6] does the source give for `Cc1cc(F)ccc1S(=O)(=O)Nc1ccccc1C(=O)Nc1ccccc1-c1nc2ccccc2[nH]1` here?
Answer: 2.02 µM (active)

Question: And the EC50 [7]?
Answer: 29 µM (inactive)

Question: What about the AC50 [8] of the same compound?
Answer: 6.59 µM (active)

Question: And the AC50 [9]?
Answer: 12.1 µM (active)

Question: What about the AC50 [10] of the same compound?
Answer: 23.2 µM (active)

Question: What about the AC50 [11] of the same compound?
Answer: 9.69 µM (active)

Question: With `CC(C)CC(=O)N1CCN(Cc2cccc(F)c2)CC1` as the compound, how does the IC50 [12] read?
Answer: > 64 µM (inactive)

Question: Which IC50 [13] does the source give for `CCC(C)NC(=O)C1CN(S(=O)(=O)c2ccccc2)CCN1S(=O)(=O)c1ccccc1` (configuration not stated) here?
Answer: > 50 µM (inactive)

Question: For `CCOC(=O)/C(C#N)=C\c1ccc2c(c1)OCO2`, which IC50 [14] is on record?
Answer: 2.02 µM (active)

Question: What about the EC50 [15] of the same compound?
Answer: > 53 µM (inactive)

Question: What about the IC50 [16] of the same compound?
Answer: > 20 µM (inactive)

Question: Which IC50 [17] does the source give for `NS(=O)(=O)c1ccc(NC(=O)COC(=O)c2ncc(Cl)c(Cl)c2Cl)cc1` here?
Answer: > 64.6 µM (inactive)

Question: And the IC50 [18]?
Answer: > 64.6 µM (inactive)

Question: For `O=C(N/N=C/c1ccc(OC(=O)c2ccccc2Cl)cc1)c1ccc(O)cc1`, which EC50 [7] is on record?
Answer: 17.1 µM (active)

Question: With `CCn1c2ccccc2c2cc(NC(=O)CSc3nc(C)cc(=O)[nH]3)ccc21` as the compound, how does the CC50 [19] read?
Answer: 41.1 µM (active)

Question: What about the CC50 [20] of the same compound?
Answer: 56 µM (active)

Question: With `O=C(OC12CC3CC(CC(C3)C1)C2)c1ccc(NCc2cc(O)ccc2O)cc1` as the compound, how does the AC50 [21] read?
Answer: 5.15 µM (active)

Question: And the AC50 [9]?
Answer: 2.33 µM (active)

Question: And the AC50 [10]?
Answer: 53 µM (active)

Question: What about the AC50 [11] of the same compound?
Answer: 3.99 µM (active)

Question: What about the IC50 [22] of the same compound?
Answer: 4.09 µM (active)

Question: Which IC50 [13] does the source give for `CN(Cc1ccccc1)c1nc2c(c(=O)[nH]c(=O)n2C)n1CCCSc1ncccn1` here?
Answer: > 50 µM (inactive)
